# Article PMC9918186, “Interaction of Positively Charged Oligopeptides with Blood Plasma Proteins” (International Journal of Molecular Sciences, 2023)
# Non-standard residues stand in square brackets, D forms with d. Residues, ends and D or L forms follow the SMILES beside them. Phe(2-F) = N[C@@H](Cc1ccccc1F)C(=O)O; Orn = NCCC[C@H](N)C(=O)O; Dab = NCC[C@H](N)C(=O)O
# What was measured:
# [1] = target: T1, BSA (Bos taurus, UniProt P02769); settings: 298 K, one-to-one stoichiometry; cited from earlier work
# T1 construct: purchased Sigma Aldrich
# T1 sequence (P02769 25-607): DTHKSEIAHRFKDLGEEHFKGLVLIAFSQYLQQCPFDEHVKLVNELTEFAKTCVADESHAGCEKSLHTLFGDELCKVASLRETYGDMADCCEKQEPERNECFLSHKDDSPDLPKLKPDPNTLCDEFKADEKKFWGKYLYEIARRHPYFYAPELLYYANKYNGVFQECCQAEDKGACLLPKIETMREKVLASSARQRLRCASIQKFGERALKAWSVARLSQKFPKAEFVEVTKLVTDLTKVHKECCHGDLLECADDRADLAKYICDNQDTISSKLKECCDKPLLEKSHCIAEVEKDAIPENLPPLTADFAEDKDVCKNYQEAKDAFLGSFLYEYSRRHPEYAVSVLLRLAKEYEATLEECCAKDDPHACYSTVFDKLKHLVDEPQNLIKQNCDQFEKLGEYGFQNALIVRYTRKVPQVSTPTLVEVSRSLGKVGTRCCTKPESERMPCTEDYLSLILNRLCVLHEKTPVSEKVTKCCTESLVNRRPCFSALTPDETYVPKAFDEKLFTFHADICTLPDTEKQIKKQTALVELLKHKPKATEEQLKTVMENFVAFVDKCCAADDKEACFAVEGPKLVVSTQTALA
# Experimental: The enthalpy change (ΔH°), the entropic change (ΔS°), and the free energy change (ΔG°) were calculated from Equations (4) and (5):(4) […]=−ΔH^°/RT+ΔS^°/R (5) ΔG^°=ΔH^°−TΔS^°=−RTlnKb where Kb is the binding constant and R is the universal gas constant. To determine the thermodynamic parameters, the van’t Hoff plot w ...
# [2] = target: bovine serum albumin (BSA) (Bos taurus, UniProt P02769); experiment: Fluorescence quenching of BSA by peptides L1–3
# Chain of bovine serum albumin (BSA) (P02769 25-607): as above
# Experimental: Fluorescence spectroscopy was carried out to characterize the mechanism of the interaction between three plasma proteins, BSA, AAG, and GGF, with the studied peptides. The fluorescence spectra of protein were collected during titration of L1–L3. The excitation wavelength was set at λ = 280 nm (both Trp and Tyr residues were excited).
# To confirm this, the fluorescence data were further analyzed by the Stern–Volmer Equation (1) after correction due to the infer filter effect (2):(1) F0/F=1+kqτ[Q]=1+KSV (2) Fcorr=Fobs10^(Aex+Aem)/2 where F0 and F are the fluorescence intensities (after correction) of the protein and protein in the presence of L1–3, respectively, kq is the quenching rate constant, τ0 the average lifetime, [Q] is the L1–3 concentration, Ksv is the Stern–Volmer constant, and Fcorr, and Fobs are the corrected and observed fluorescence intensities, respectively. Aex and Aem are the absorbance values at excitation and emission wavelengths, respectively. A linear regression fit was used to calculate the value of the Stern–Volmer constant (Ksv). Then, assuming the average lifetime of the fluorophore in the excited state for a biomolecule as 10^−8 s, the quenching rate constant (kq) was computed. For dynamic quenching, the maximum scatters collision quenching rate constant for different quenchers with the biopolymers was reported to be 2 × 10^10 dm^3mol^−1s^−1 [55, 56]. […] Collisional quenching occurs when the excited-state fluorophore is deactivated by contact with some other molecule in solution (by collisions). […] This is a dynamic mechanism of quenching. The quenching constant characterizes the quenching mechanism. The maximum value for collisional quenching is 2 × 10^10 dm^3mol^−1s^−1. […] For further confirmation, measurements were made at, in addition to 297 K, temperatures 303 and 308 K. Experimental data points were fitted and analyzed using Equation (1).
# Both for the complexes with BSA and with GGF, the binding constant (Kb) and the binding stoichiometry (n) were calculated. […] The values of Kb and n were calculated from the slope and the intercept of the log [(F0 − F)/F] versus log [Q] plot (Figure 2).
# The forces involved in the interaction can be identified by measurement at different temperatures and then by thermodynamic analysis. The signs of the thermodynamic parameters identify the type of interactions. The enthalpy change (ΔH°), the entropic change (ΔS°), and the free energy change (ΔG°) were calculated from Equations (4) and (5):(4) […]=−ΔH^°/RT+ΔS^°/R (5) ΔG^°=ΔH^°−TΔS^°=−RTlnKb where Kb is the binding constant and R is the universal gas constant. To determine the thermodynamic parameters, the van’t Hoff plot was first conducted, i.e., the temperature dependence of the binding constant, according to Equation (4). The Kb values at the three temperatures were fitted by the linear regression method. The values of ΔH and ΔS were calculated from the slope and intercept at the fitted line. Next, the free energy change (ΔG°) was obtained from Equation (5).
# [3] = 297 K, BSA 1.0 µM, phosphate buffer
# [4] = 308 K, BSA 1.0 µM, phosphate buffer
Compound,Kb constant to BSA [1],"binding constant Kb [2, 3]","binding constant Kb [2, 4]","binding constant Kb ([2]; 303 K, BSA 1.0 µM, phosphate buffer)","binding constant Kb ([2]; BSA, 297 K)"
CS(=O)(=O)CCNCc1ccc(-c2ccc3ncnc(Nc4ccc(OCc5cccc(F)c5)c(Cl)c4)c3c2)o1 [lapatinib],2.24 × 10^5 dm^3mol^−1,,,,
"N=C(N)NCCC[C@H](NC(=O)[C@H](CCCCN)NC(=O)[C@H](Cc1ccccc1F)NC(=O)[C@@H]1CCCN1C(=O)[C@H](CCCN)NC(=O)CNC(=O)[C@H](CCN)NC(=O)[C@H](CCN)NC(=O)[C@@H](N)CCCCN)C(=O)O [L3, Lys-Dab-Dab-Gly-Orn-Pro-Phe(2-F)-Lys-Arg] (H-K[Dab][Dab]G[Orn]P[Phe(2-F)]KR-OH)",,2.52 ± 0.07 × 10^4 dm^3mol^−1,0.76 ± 0.03 × 10^4 dm^3mol^−1,,
"C[C@H](NC(=O)[C@H](CCN)NC(=O)[C@@H](N)CCCCN)C(=O)NCC(=O)N[C@@H](CCCN)C(=O)N1CCC[C@H]1C(=O)N[C@@H](Cc1c[nH]cn1)C(=O)N[C@@H](CCCCN)C(=O)N[C@@H](CCCNC(=N)N)C(=O)O [L2, Lys-Dab-Ala-Gly-Orn-Pro-His-Lys-Arg] (H-K[Dab]AG[Orn]PHKR-OH)",,3.39 ± 0.06 × 10^4 dm^3mol^−1,0.55 ± 0.02 × 10^4 dm^3mol^−1,1.10 ± 0.05 × 10^4 dm^3mol^−1,3.39 × 10^4 dm^3mol^−1
COc1cc2ncnc(Nc3ccc(F)c(Cl)c3)c2cc1OCCCN1CCOCC1 [gefitinib],8.32 × 10^4 dm^3mol^−1,,,,
CCN(CC)CCNC(=O)c1c(C)[nH]c(/C=C2\C(=O)Nc3ccc(F)cc32)c1C [sunitinib],1.32 × 10^5 dm^3mol^−1,,,,
